Reference: patent publication US20170128592A1, “TARGETED POLYMERIC NANO-COMPLEXES AS DRUG DELIVERY SYSTEM” (Indian Institute of Technology, Bombay, priority 2015, published 2017)

Legend:
Format in all cases: cell-based, human
[1] = tested on: pEGFR expression in Huh7 cells; assay: Immunofluorescence (CLSM) of pEGFR expression; settings: 48 hr
Method: (§1) To evaluate the effect of nanocomplexes on EGFR and tubulin interactions, Huh7 cells (5×10^4 cells/well) in 24 well plates were treated with 15 nM of CA4, PLGA-b-PEG-CA4 NP, Cet-PLGA-b-PEG-CA4 NP, 5 μM of 2 ME, PLGA-b-PEG-2 ME NP, Cet-PLGA-b-PEG-2 ME NP and combinatorial Cet-PLEA-b-PEG-CA4 NP+Cet-PLGA-b-PEG-2 ME NP (15 nM+5 μM) for 48 hr. Untreated and bare PLGA-b-PEG NP treated cells served as the negative controls. Cells were then fixed with 3.7% formaldehyde at 37° C. for 30 min and immunostained with primary antibodies anti-EGFR, anti-pEGFR XP rabbit monoclonal antibodies (Cell Signaling Technology Inc., USA), anti-α-Tubulin mouse monoclonal antibody (Signa Aldrich, USA) and anti-pHistone H3 rabbit polyclonal antibody (Ser-10, Santa Cruz Biotechnology, USA) followed by incubation with secondary antibody FITC-conjugated anti-mouse IgG or FITC-conjugated anti-rabbit IgG (Sigma Aldrich, USA) or anti-mouse IgG-Alexa 568 conjugate (Invitrogen, USA). Hoechst 33258 was used for DNA counterstaining and cells were examined under CLSM.

[2] = tested on: pHistone H3 in Huh7 cells; assay: Immunofluorescence of Histone H3 phosphorylation (Serine 10); settings: 48 hr
Method: as §1

[3] = tested on: Huh7 cells; assay: Annexin V/PI apoptosis assay by flow cytometry; settings: IC50 concentrations, 48 hr
Method: Annexin V and Propidium iodide (PI) staining detection kit was used to quantify apoptotic cells. […] A combination of Cet-PLGA-b-PEG-CA4 NP Cet-PLEA-b-PEG-2ME NP (15 nM+5 μM) was also evaluated. Untreated and bare PLGA-b-PEG NP treated cells served as the negative controls. Cells were washed twice with PBS and resuspended in 400 μL of 1× binding buffer. Then, 5 μL of Annexin V-FITC and PI solution were added to the test samples, incubated for 15 min in dark at room temperature, and analyzed using flow cytometer BD FACS ARIA special order system equipped with the BD FACSDiva. (Becton and Dickinson, USA) software program. The fluorescence of 20,000 cells were gated and counted for each sample.

[4] = tested on: Huh7 cells; assay: SRB cytotoxicity assay; settings: Huh7, 48 hr incubation, mean ± SD of three experiments
Method: For cytotoxicity measurements, Hep G2 and Huh7 cells were incubated in 96-well plates (Nunc, USA) at 5×10^4 cells/well density and then treated with bare PLGA-b-PEG NP, Cet-PLEA-b-PEG NP (50-250 μg/mL), free drug CA4, its nano-complexes ([…]) and free drug 2 ME, its nano-complexes (1-15 μM) for 48 hr. […] The standard SRB assay was used to measure the cell viabilities. The absorbance was measured with a 96-well fluorescence plate reader (SPECTRAmax M2, Molecular Devices, USA) equipped with the SOFTmax Pro software (Molecular Devices), at a 550 nun wavelength. IC50 values of the free drugs and all the nanocomplexes were evaluated using OriginPro 8.0 software.

Compound	effect on pEGFR expression by CLSM ([1]; 5 μM)	pHistone H3 positive cells ([2]; 5 μM)	induction of apoptosis [3]	IC50 [4]	effect on pEGFR expression by CLSM ([1]; 15 nM)	pHistone H3 positive cells ([2]; 15 nM)
COc1cc2c(cc1O)CC[C@@H]1[C@@H]2CC[C@]2(C)[C@@H](O)CC[C@@H]12 [2 ME, 2-methoxyestradiol]	moderately affected	2±0.7%	2.6%	3.5 µM		
COc1ccc(/C=C\c2cc(OC)c(OC)c(OC)c2)cc1O [CA4, combretastatin A4]			11.5%	0.0149 µM	moderately affected	4±0.3%
